Data on seven compounds can be found in ChEMBL document CHEMBL1201862, “PubChem BioAssay data set” (2004).

Among the test systems are BT-549; HCC 2998; HCT-116; HCT-15; HL-60; Hs-578T; IGROV-1; KM12; MOLT-4; NCI-H23; NCI-H522; OVCAR-3; OVCAR-4; PC-3; RXF 393; SK-MEL-5; SK-OV-3; SNB-75; U-251; UACC-257.
What all share (assay): NCI anticancer screen, dose series, 48 h

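Protocol summary: plate cells (96-well), add compound at 5 concentrations, incubate 48 h, interpolate endpoints linearly. At the GI50, growth is halved.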 Active and inactive are the calls of the source. Rule as the data show it: active = GI50 up to about 1.1 µM and inactive = higher.

Turning to `O=S(=O)(Nc1ccccc1S(=O)(=O)c1ccccc1)c1ccccc1`, the GI50 in the assay with BT-549 was 63.1 µM (inactive); in the assay with HCC 2998 it was 44.6 µM (inactive); with HCT-116, 77.1 µM (inactive); with HCT-15 it was 50.6 µM; in the assay with HL-60 it was 30.8 µM (inactive); with Hs-578T, 51.9 µM (inactive). Moreover, the GI50 with IGROV-1 was > 100 µM (inactive); in the assay with KM12, 56.8 µM (inactive); with MOLT-4 it was 65.8 µM (inactive); with NCI-H23 it was 46.7 µM (inactive); with NCI-H522, 41.2 µM (inactive); with OVCAR-3, 65.6 µM (inactive). The GI50 was 51.3 µM (inactive) in the assay with OVCAR-4; 52.4 µM (inactive) in the assay with PC-3; > 100 µM (inactive) in the assay with RXF 393; 58.6 µM (inactive) with SK-MEL-5; > 100 µM (inactive) in the assay on SK-OV-3; > 100 µM (inactive) in the assay on SNB-75. In addition, the GI50 is 41.1 µM (inactive) with U-251 and 73.1 µM (inactive) with UACC-257.
`CN(C)CCNc1ccc(CO)c2oc3ccc(O)cc3c(=O)c12`: the GI50 was 14.6 µM (inactive) in the assay with BT-549; 14 µM (inactive) with HCC 2998; 6.4 µM (inactive) in the assay on HCT-116; 14.4 µM in the assay with HCT-15; 10.8 µM (inactive) with HL-60; 14 µM (inactive) with Hs-578T. In addition, the GI50 in the assay with IGROV-1 was 19.1 µM (inactive); in the assay on KM12, 14.4 µM (inactive); with MOLT-4 it was 2.47 µM (inactive); with NCI-H23, 11.5 µM (inactive); in the assay on NCI-H522, 4.32 µM (inactive); in the assay on OVCAR-3, 16.5 µM (inactive). The GI50 in the assay on OVCAR-4 is 13.8 µM (inactive); with PC-3, 12.7 µM (inactive); in the assay on RXF 393, 12.6 µM (inactive); in the assay with SK-MEL-5, 14.2 µM (inactive); in the assay on SK-OV-3, 14.4 µM (inactive); with SNB-75, 12.6 µM (inactive). Further, the GI50 with U-251 is 12.4 µM (inactive); in the assay with UACC-257, 12.8 µM (inactive).
On to `CC(C)OC(=O)Nc1c([N+](=O)[O-])cc(C(F)(F)F)cc1[N+](=O)[O-]`, for which the GI50 in the assay on BT-549 is > 100 µM (inactive); in the assay with HCC 2998, > 100 µM (inactive); in the assay with HCT-116 it was > 100 µM (inactive); in the assay with HCT-15, greater than 100 µM; in the assay with HL-60 it was > 100 µM (inactive); with Hs-578T it was 35.1 µM (inactive). In addition, the GI50 in the assay on IGROV-1 was > 66.7 µM (inactive); with KM12, > 100 µM (inactive); in the assay on MOLT-4 it was > 46.5 µM (inactive); in the assay with NCI-H23 it was 69.5 µM (inactive); in the assay on NCI-H522 it was > 95.7 µM (inactive); with OVCAR-3, > 100 µM (inactive). In addition, the GI50 in the assay with OVCAR-4 was > 100 µM (inactive); in the assay on PC-3, > 100 µM (inactive); in the assay with RXF 393, 20.1 µM (inactive); in the assay with SK-MEL-5, > 100 µM (inactive); in the assay with SK-OV-3, 40.3 µM (inactive); with SNB-75 it was 5.38 µM (inactive). The GI50 in the assay with U-251 was 97.9 µM (inactive); in the assay on UACC-257, > 100 µM (inactive).
`CC1=CC(=O)/C(=C/n2c(=S)[nH]c3ccc([N+](=O)[O-])cc32)C(=O)O1`: the GI50 is > 100 µM (inactive) in the assay with BT-549; > 100 µM (inactive) with HCC 2998; > 100 µM (inactive) in the assay on HCT-116; greater than 100 µM with HCT-15; 2.09 µM (inactive) in the assay with HL-60; > 100 µM (inactive) in the assay with Hs-578T. Besides, the GI50 with IGROV-1, in the assay with KM12, in the assay on MOLT-4, in the assay with NCI-H23, in the assay with NCI-H522 and with OVCAR-3 was > 100 µM (inactive) throughout. In addition, the GI50 in the assay on OVCAR-4, in the assay on PC-3, in the assay with RXF 393, with SK-MEL-5, in the assay on SK-OV-3 and in the assay with SNB-75 was > 100 µM (inactive) throughout. Also, the GI50 with U-251 and with UACC-257 was > 100 µM (inactive) each time.
For the compound `COc1cc2cc(C(=O)N3CC(CCl)c4ccc(NCCN)cc43)[nH]c2c(OC)c1OC` (stereo not given), the GI50 with BT-549 is 0.345 µM (active); with HCC 2998, 0.146 µM (active); in the assay on HCT-116, 0.217 µM (active); with HCT-15, 0.377 µM; in the assay on HL-60, 0.0319 µM (active); in the assay with Hs-578T, 0.472 µM (active). In addition, the GI50 is 0.112 µM (active) with IGROV-1; 0.206 µM (active) in the assay with KM12; 0.0575 µM (active) with MOLT-4; 0.0822 µM (active) in the assay on NCI-H23; 0.046 µM (active) with NCI-H522; 0.236 µM (active) with OVCAR-3. The GI50 is 0.263 µM (active) with OVCAR-4; 0.117 µM (active) in the assay on PC-3; 0.105 µM (active) in the assay on RXF 393; 0.116 µM (active) with SK-MEL-5; 0.282 µM (active) with SK-OV-3; 0.232 µM (active) in the assay on SNB-75. Also, the GI50 is 0.175 µM (active) in the assay on U-251 and 0.251 µM (active) with UACC-257.
Take `COc1ccc(C2C(C(=O)c3ccccc3)=C(O)C(O)(CC(=O)c3ccccc3)N2c2ccc(OC)cc2)cc1` (stereo not given): the GI50 in the assay on BT-549 is 7.55 µM (inactive); with HCC 2998 it was 11.1 µM (inactive); in the assay with HCT-116, 9.29 µM (inactive); in the assay with HCT-15 it was 9.38 µM; in the assay on HL-60, 5.78 µM (inactive); in the assay on Hs-578T, 28.6 µM (inactive). Further, the GI50 in the assay with IGROV-1 was 21.9 µM (inactive); with KM12, 11.2 µM (inactive); with MOLT-4, 12.5 µM (inactive); in the assay on NCI-H23, 21.1 µM (inactive); with NCI-H522, 4.35 µM (inactive); in the assay with OVCAR-3, 7.67 µM (inactive). The GI50 was 19.1 µM (inactive) in the assay on OVCAR-4; 11.6 µM (inactive) in the assay with PC-3; 9.38 µM (inactive) in the assay on RXF 393; 9.57 µM (inactive) in the assay on SK-MEL-5; 25.2 µM (inactive) in the assay with SK-OV-3; 34.1 µM (inactive) in the assay on SNB-75. In addition, the figures for the GI50 in the assay on U-251 and in the assay with UACC-257 were 8.09 µM (inactive) and 7.94 µM (inactive), respectively.
On to `O=C1CS(=O)(=O)C(c2cccc(Oc3ccccc3)c2)N1c1ccc(Cl)cc1` (stereo not given), for which the GI50 in the assay with BT-549 was 24.7 µM (inactive); with HCC 2998, 3.4 µM (inactive); with HCT-116, 7.91 µM (inactive); in the assay on HCT-15, 20.2 µM; with HL-60, 24.2 µM (inactive); with Hs-578T it was 30.1 µM (inactive). Moreover, the GI50 in the assay with IGROV-1 was 14.3 µM (inactive); with KM12 it was 14.8 µM (inactive); with MOLT-4, 20.9 µM (inactive); in the assay with NCI-H23, 21.1 µM (inactive); in the assay on NCI-H522, 16.8 µM (inactive); in the assay with OVCAR-3 it was 24.2 µM (inactive). Also, the GI50 in the assay with OVCAR-4 is 22.8 µM (inactive); in the assay on PC-3, 17.9 µM (inactive); with RXF 393, 18.6 µM (inactive); with SK-MEL-5, 12.3 µM (inactive); in the assay on SK-OV-3 it was 49 µM (inactive); in the assay on SNB-75 it was 28 µM (inactive). Moreover, the GI50 with U-251 is 19.1 µM (inactive); in the assay on UACC-257, 14.8 µM (inactive).
